The values below come from patent publication US20080058351A1, “Novel heterobicyclic compounds” (Concert Pharmaceuticals Inc., priority 2006, published 2008).

The target in data set [1] is benzodiazepine receptor of the rat cerebral cortex. In words: Benzodiazepine receptor binding, competition with [3H]flunitrazepam. The note with it: [3H]flunitrazepam 0.4 nM, 4° C., 60 minutes. As for the experimental part:
Benzodiazepine Receptor Binding. Compound 1 and Indiplon were compared in their ability to bind to compete with [^3H] flunitrazepam (0.4 nM) for binding to the benzodiazepine receptor of the rat cerebral cortex using the method of Speth, R C et al., 1979, Life Sci., 24:351-358. Varying concentrations of Indiplon or Compound 1 (30 pM-1 μM) were used. Diazepam (3 μM) was used as a non-specific receptor binding compound. Binding was allowed to proceed at 4° C. for 60 minutes. Quantification of binding was determined by scintillation counting.

The nature of data set [2]: Co-incubation of Compound 1 and Indiplon with human liver microsomes. Type of data set: in vitro ADME. As for the experimental part: Co-incubation of Compound 1 and Indiplon with Human Liver Microsomes: In another set of experiments Compound 1 and Indiplon were incubated together with human liver microsomes and their metabolism followed over time to eliminate any potential variability in samples. The reaction mixture compositions utilized in these experiments were as follows:
Reaction Mixture Composition A:
Reaction Mixture Composition B:
Reaction Mixture Composition C:
HPLC-grade solvents were used for preparation of all solutions. Dosing solutions of test agents were initially prepared at five times the final concentrations of the various reaction mixtures indicated above. Dosing solutions were warmed to 37° C. prior to the start of the assay. Two sets of triplicate wells were prepared in a 96-well deep well plate for each reaction mixture and warmed to 37° C. At the start of the assay, dosing solutions were diluted five-fold into the reaction wells. The reaction plate was incubated at 37° C., and 30 μL aliquots removed immediately after start (15 sec), and after each of 10 min, 20 min, 30 min, 40 min and 60 min of reaction. The aliquots were added to 30 μL of ice cold STOP Solution (acetonitrile containing 0.3% acetic acid with 3 mM haloperidol as an internal standard) in a separate 96-well plate. The stopped reactions were incubated at least 10 min at −20° C., and 30 μL of water was added. The plates were centrifuged for 15 min at 2000 rpm, 4° C. Approximate 60 μL of the supernatant was removed without disturbing the pellet and transferred to a fresh 96-well plate for analysis. Analysis samples were stored at −20° C. and analyzed by LC-MS.
In general terms: Microsomes from liver hold many membrane-bound enzymes, among them those of drug oxidation.

Data set [3] in a line: Human liver microsome metabolic stability assay (separate incubations). The note with it: 1.0 mg/mL human liver microsomes. Type of data set: in vitro ADME. The source says: Human Microsomal Assay: The metabolic stability of the present compounds may be evaluated in one or more microsomal assays that are known in the art. See, for example, Obach, R. S. Drug Metab Disp 1999, 27, p. 1350 “Prediction of human clearance of twenty-nine drugs from hepatic microsomal intrinsic clearance data: An examination of in vitro half-life approach and nonspecific binding to microsomes”; Houston, J. B. et al., Drug Metab Rev 1997, 29, p. 891 “Prediction of hepatic clearance from microsomes, hepatocytes, and liver slices”; Houston, J. B. Biochem Pharmacol 1994, 47, p. 1469 “Utility of in vitro drug metabolism data in predicting in vivo metabolic clearance”; Iwatsubo, T et al., Pharmacol Ther 1997, 73, p. 147 “Prediction of in vivo drug metabolism in the human liver from in vitro metabolism data”; and Lave, T. et al., Pharm Res 1997, 14, p. 152 “The use of human hepatocytes to select compounds based on their expected hepatic extraction ratios in humans”; each of which are incorporated herein in their entirety.
The objectives of this study were to determine the metabolic stability of the test compounds in pooled liver microsomal incubations and to perform full scan LC-MS analysis for the detection of major metabolites. Samples of the test compounds, exposed to pooled human liver microsomes, were analyzed using HPLC-MS (or MS/MS) detection. For determining metabolic stability, multiple reaction monitoring (MRM) was used to measure the disappearance of the test compounds. For metabolite detection, Q1 full scans were used as survey scans to detect the major metabolites.
Experimental Procedures: Human liver microsomes were obtained from Absorption Systems L.P. (Exton, Pa.). Details about the matrices used in the experiments are shown below. The incubation mixture was prepared as follows:
Reaction Mixture Composition
Incubation of Test Compounds with Liver Microsomes: The reaction mixture, minus cofactors, was prepared. An aliquot of the reaction mixture (without cofactors) was incubated in a shaking water bath at 37° C. for 3 minutes. Another aliquot of the reaction mixture was prepared as the negative control. The test compound was added into both the reaction mixture and the negative control at a final concentration of 1 μM. An aliquot of the reaction mixture was prepared as a blank control, by the addition of plain organic solvent (not the test compound). The reaction was initiated by the addition of cofactors (not into the negative controls), and then incubated in a shaking water bath at 37° C. Aliquots (200 μL) were withdrawn in triplicate at 0, 15, 30, 60, and 120 minutes and combined with 800 μL of ice-cold 50/50 acetonitrile/dH2O to terminate the reaction. The positive controls, testosterone and propranolol, were run simultaneously with the test compounds in separate reactions.
All samples were analyzed using LC-MS (or MS/MS). An LC-MRM-MS/MS method was used for metabolic stability. Also, Q1 full scan LC-MS methods were performed on the blank matrix and the test compound incubation samples. The Q1 scans served as survey scans to identify any sample unique peaks that might represent the possible metabolites. The masses of these potential metabolites can be determined from the Q1 scans.

Data set [4] deals with GABAA receptor (rat cortex membranes). In words: Enhancement of [35S]TBPS binding to rat cortex membranes. From the text:
A further index of activity at the benzodiazepine site on the GABAA receptor is the ability to increase the binding of [^35S] t-butylbicyclophosphorothionate (TBPS) to rat cortex membranes. TBPS binds to a site on the GABAA receptor which is closely associated with the chloride channel, and an increase in TBPS binding correlates with increased activation of the chloride conductance (i.e., enhanced GABAA receptor function). Compounds which act as agonists at the benzodiazepine site increase TBPS binding to varying degrees, which reflects their relative efficacies.

The target of data set [5] is benzodiazepine site on the GABAA receptor (rat cortex). The data set is described as follows: Inhibition of [3H]flunitrazepam binding to rat cortex membranes. The note with it: read-out: IC50 for displacing [3H]flunitrazepam binding to rat cortex.

For orientation: IC50 means the concentration that inhibits the measured activity by half. As usually defined, the Ki is a dissociation constant, usually derived from enzyme kinetics or from competition with a known ligand. Low readings indicate higher affinity, high ones lower affinity. As to `CC(=O)N(C)c1cccc(-c2ccnc3c(C(=O)c4cccs4)cnn23)c1` [Compound 1, N-d3-Methyl-N-{3-[3-(thiophene-2-carbonyl)-pyrazolo[1,5-a]pyrimidin-7-yl]-phenyl}-acetamide], in data set [1], the half-maximal inhibitory concentration (IC50) was 2.9 nM and the Ki was 2.4 nM.
As a reminder, the half-life is how long it takes for the measured level to halve. With `[2H]C([2H])([2H])N(C(C)=O)c1cccc(-c2ccnc3c(C(=O)c4cccs4)cnn23)c1` [Compound 1, N-d3-Methyl-N-{3-[3-(thiophene-2-carbonyl)-pyrazolo[1,5-a]pyrimidin-7-yl]-phenyl}-acetamide], the half-life amounted to 4.557 h in data set [2] (0.1 μM each, 1.0 mg/ml human microsomes (FIG. 1 panel B)); 2.543 h in data set [2] (0.2 μM each, 2.0 mg/ml human microsomes (FIG. 1 panel C)); 3.405 h in data set [2] (0.5 μM each, 1.0 mg/ml human microsomes (FIG. 1 panel A)). Moreover, the “ratio of half lives of Compound 1 to Indiplon” value is reported as 1.257 in data set [2] (0.1 μM each, 1.0 mg/ml human microsomes (panel B)); 1.312 in data set [2] (0.2 μM each, 2.0 mg/ml human microsomes (panel C)); 1.260 in data set [2] (0.5 μM each, 1.0 mg/ml human microsomes (panel A)); 1.261 in data set [3] (1 μM). Further, in data set [3] (1 μM test compound), the half life is 1.24 h. Besides, in data set [3] (1 μM test compound), the “% remaining after 60 minutes of exposure” value was found to be 66%. The “% remaining after 120 minutes of exposure” value in data set [3] (1 μM test compound) was found to be 59%.
On to `CC(=O)N(C)c1cccc(-c2ccnc3c(C(=O)c4cccs4)cnn23)c1` [Indiplon, N-methyl-N-[3-[3-(2-thienylcarbonyl)-pyrazolo[1,5-a]pyrimidin-7-yl]phenyl]acetamide], for which, in data set [2] (human liver microsomes, 0.1 μM each, 1.0 mg/ml human microsomes (FIG. 1 panel B)), the half-life at 0.1 μM was found to be 3.62 h. Further, the half-life at 0.2 μM in data set [2] (human liver microsomes, 0.2 μM each, 2.0 mg/ml human microsomes (FIG. 1 panel C)) is 1.94 h. Further, the half-life at 0.5 μM in data set [2] (human liver microsomes, 0.5 μM each, 1.0 mg/ml human microsomes (FIG. 1 panel A)) stood at 2.7 h. Further, in data set [1], the IC50 came to 3.6 nM and the Ki turned out to be 3 nM. Moreover, in data set [3] (1 μM test compound), the “% remaining after 60 minutes of exposure” value was 50% and the “% remaining after 120 minutes of exposure” value is 42%. The half-life at 1 μM in data set [3] (pooled human liver microsomes, 1 μM test compound) was found to be 0.983 h.
`CN1C(=O)CN=C(c2ccccc2)c2cc(Cl)ccc21` [diazepam]: in data set [4], the “Emax (maximum enhancement of TBPS binding over the concentration range employed)” value turned out to be 55%. The IC50 in data set [5] is 17 nM.
Take `CN1C(=O)CN=C(c2ccccc2F)c2cc([N+](=O)[O-])ccc21` [flunitrazepam]: in data set [5], the concentration for half-maximal inhibition (IC50) was 114 nM.
Turning to `CCN(CC)CCN1C(=O)CN=C(c2ccccc2F)c2cc(Cl)ccc21` [flurazepam], in data set [4], the “Emax (maximum enhancement of TBPS binding over the concentration range employed)” value is 71%.
As to `Cc1nnc2n1-c1ccc(Cl)cc1C(c1ccccc1Cl)=NC2` [triazolam], the “Emax (maximum enhancement of TBPS binding over the concentration range employed)” value in data set [4] is on record as 78%. The IC50 in data set [5] was determined as 0.5 nM.
As to `Cc1ccc(-c2nc3ccc(C)cn3c2CC(=O)N(C)C)cc1` [zolpidem], the IC50 in data set [5] stood at 26 nM.
